According to patent publication US12692274B2, “Tetrahydroisoquinoline derivatives for the treatment of red blood disorders and inflammatory diseases” (Sanofi, priority 2020, dated 2026):
Values joined by “and” are separate entries in the source; they are usually repeats but may differ in a detail not shown here. Equal values may be shown once.

Assays:
[1] = test system: NQO1 activation in BEAS-2B cells; assay: BEAS-2B cellular MTT assay of NQO1 activation, 0% HSA; type: cell-based
How it was run: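 For the 0% HSA condition, cells were seeded into collagen plates in HSA-free medium. Culture was BEAS-2B in BEBM plus BEGM SingleQuots lacking GA-1000, held under 70% confluence, at a seeding density reaching 95-100% confluence by 48 h.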

[2] = test system: NQO1 activation in BEAS-2B cells; assay: BEAS-2B cellular MTT assay of NQO1 activation, 0.3% HSA; type: cell-based
How it was run: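 MTT read-out in BEAS-2B cells grown in BEBM with SingleQuots, no GA-1000, kept below 70% confluence; plates coated with collagen, with 0.3% or 0% HSA medium, seeded to 95-100% confluency at 48 h, 37 °C, 5% CO2.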

[3] = biological target: HIS-Keap1 full length / Biotin-Nrf2 (16-mer) (Homo sapiens, UniProt Q14145); assay: biochemical
[4] = Homo sapiens, serum free, read-out: BEAS EC50 (nM) serum free
[5] = serum free, read-out: BEAS EC50 (nM) serum free
[6] = Homo sapiens, BEAS+, read-out: BEAS+ EC50
[7] = Homo sapiens, Serum Free W, read-out: BEAS EC50 (nM) Serum Free W
[8] = Serum Free W, read-out: BEAS EC50 (nM) Serum Free W
[9] = BEAS+ W, read-out: BEAS+ W EC50
[10] = Homo sapiens, BEAS+ W, read-out: BEAS+ W EC50

Sequence of HIS-Keap1 full length / Biotin-Nrf2 (16-mer) (Q14145 whole entry): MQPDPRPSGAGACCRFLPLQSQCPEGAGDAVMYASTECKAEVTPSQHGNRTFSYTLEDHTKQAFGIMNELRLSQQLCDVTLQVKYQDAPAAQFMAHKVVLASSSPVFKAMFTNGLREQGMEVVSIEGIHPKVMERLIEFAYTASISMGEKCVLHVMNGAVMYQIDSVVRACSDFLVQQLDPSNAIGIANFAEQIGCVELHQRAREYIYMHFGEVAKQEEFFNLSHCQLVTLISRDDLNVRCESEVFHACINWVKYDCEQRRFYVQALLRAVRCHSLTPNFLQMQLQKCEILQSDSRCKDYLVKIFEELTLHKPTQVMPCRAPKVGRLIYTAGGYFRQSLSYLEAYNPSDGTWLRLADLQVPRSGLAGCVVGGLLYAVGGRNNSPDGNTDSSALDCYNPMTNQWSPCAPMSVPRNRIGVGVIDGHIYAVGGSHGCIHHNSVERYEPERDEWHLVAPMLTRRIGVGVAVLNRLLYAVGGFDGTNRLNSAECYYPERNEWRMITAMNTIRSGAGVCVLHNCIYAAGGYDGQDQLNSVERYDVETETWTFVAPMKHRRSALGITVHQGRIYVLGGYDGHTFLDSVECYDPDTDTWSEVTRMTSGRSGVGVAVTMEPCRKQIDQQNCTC

Compound | EC50 [1, 4] [nM] | EC50 [1, 5] [nM] | EC50 ([2]; BEAS+, read-out: BEAS+ EC50) [nM] | EC50 [2, 6] [nM] | IC50 [3] | EC50 [1, 7] [nM] | EC50 [1, 8] [nM] | EC50 [2, 9] [nM] | EC50 [2, 10] [nM]
Cc1c2ccc3c1nnn3CCCCCCOc1ccc(cc1)C(=O)N1CCc3ccc(cc3C1)[C@H]2[C@H](C)C(=O)O [Compound 159] | 113 | 122 | 480 | 461 | 6.9 nM and 7.2 nM | – | – | – | –
Cc1cc2cc3c1CCN(C3)C(=O)c1ccc(cc1)CCCCCn1nnc3c(C)c(cnc31)C2CC(=O)O (stereo not drawn) [Compound 105] | – | – | – | – | 0.8 nM | 3.9 | 4.2 | 9.1 | 11.6
O=C(O)CC1c2ccc3c(c2)CN(CC3)C(=O)c2ccc(cc2Cl)OCCCCCCn2nnc3cc1ccc32 (stereo not drawn) [Compound 305] | 345 | – | 748 | 651 | < 0.1 nM | – | – | – | –
Cc1c2cnc3c1nnn3CCCCCc1ccc3c(c1)cc(n3C)C(=O)N1CCc3ccc(cc3C1)C2CC(=O)O (stereo not drawn) [Compound 143] | – | – | – | – | 0.7 nM | 2.2 | 2.6 | 10.6 | 10.3
O=C(O)C[C@H]1c2cnc(nc2)OCC/C=C/Cc2c(F)c(F)c(c(F)c2F)C(=O)N2CCc3ccc1cc3C2 [Compound 35] | – | – | – | – | 840 nM and 662 nM | > 1000 | – | – | > 10000
O=C(O)CC1c2ccc3c(c2)CN(CC3)C(=O)c2ncc(cc2F)CCCCCCn2nnc3c(Cl)c1ccc32 (stereo not drawn) [Compound 224] | 400 | 296 | 314 | 320 | 2.1 nM and 2 nM | – | – | – | –
Cc1c2ccc3c1nnn3CCCCCCOc1ccc(cc1)C(=O)N1CCc3ccc(cc3C1)[C@H]2[C@@H](C)C(=O)O [Compound 155] | > 10000 | – | – | > 10000 | 734 nM and 514 nM | – | – | – | –
Cc1cc2ccc1C(=O)N1CCc3ccc(cc3C1)C(CC(=O)O)c1ccc3c(c1)nnn3CCCCCCO2 (stereo not drawn) [Compound 332] | 27.4 | – | – | 62.7 | < 0.1 nM | – | – | – | –
Cc1cc2ncc1[C@@H](CC(=O)O)c1ccc3c(c1)CN(CC3)C(=O)c1c(F)cc(cc1F)CCCCCO2 [Compound 122] | – | – | – | – | 52.8 nM and 42.8 nM | 17.6 | 30.2 | 54.2 | 47
Cc1c2ccc3c1nnn3CCCCC(F)(F)Oc1ccc(cc1)C(=O)N1CCc3ccc(cc3C1)C2CC(=O)O (stereo not drawn) [Compound 304] | 18.3 | – | 29 | 25.1 | < 0.1 nM and 0.2 nM | – | – | – | –
Cc1c2ccc3c1nnn3CCCCCc1cnc(c(F)c1)C(=O)N1CCc3ccc(cc3C1)C2CC(=O)O (stereo not drawn) [Compound 219] | 180 | 208 | 208 | 228 | 1.3 nM and 1.5 nM | – | – | – | –
Cc1c2cnc3c1nnn3CCCCCCOc1cc(F)c(c(F)c1)C(=O)N1CCc3ccc(cc3C1)[C@H]2CC(=O)O [Compound 208] | – | – | – | – | 1.1 nM | 10.1 | 14.9 | 27.2 | 25.1
Cc1cc2ncc1C(CC(=O)O)c1ccc3c(c1)CN(CC3)C(=O)c1ccc(cc1)CCCCCO2 (stereo not drawn) [Compound 157] | 3.2 | 2.1 | 8.9 | 9.2 | 3.8 nM and 4 nM | – | – | – | –
Cc1c2cnc3c1nnn3CCCCCCOc1ccc(c(F)c1)C(=O)N1CCc3ccc(cc3C1)C2CC(=O)O (stereo not drawn) [Compound 222] | 17.2 | 14.2 | 38.6 | 47.4 | 1.6 nM and 1.5 nM | – | – | – | –
COc1cc2ccc1C(=O)N1CCc3ccc(cc3C1)[C@H](CC(=O)O)c1cnc3c(nnn3CCCCC2)c1C [Compound 89] | – | – | – | – | 0.8 nM and 0.9 nM | 30.6 | 22.8 | 48.5 | 38.7
O=C(O)C[C@H]1c2ccc(nc2)OCCCCCc2ccc(cc2)C(=O)N2CCc3ccc1cc3C2 [Compound 172] | 79.2 | 73 | 263 | 188 | 216 nM and 227 nM | – | – | – | –

Compound | EC50 [1, 4] [nM] | EC50 [1, 5] [nM] | EC50 ([2]; BEAS+, read-out: BEAS+ EC50) [nM] | EC50 [2, 6] [nM] | IC50 [3] | EC50 [1, 7] [nM] | EC50 [1, 8] [nM] | EC50 [2, 9] [nM] | EC50 [2, 10] [nM]
Cc1c2ccc3c1nnn3CCCCCCc1ccc(c(F)c1)C(=O)N1CCc3ccc(cc3C1)[C@@H]2[C@@H](C)C(=O)O [Compound 167] | – | – | – | – | 12.3 nM and 14.1 nM | 34.7 | 36.6 | 133 | 103
Cc1c2ccc3c1nnn3CCCCCCc1ccc(c(F)c1)C(=O)N1CCc3ccc(cc3C1)[C@H]2[C@@H](C)C(=O)O [Compound 141] | – | – | – | – | > 990 nM | > 1000 | – | 7040 | 7200
Cc1cc2ccc1C(=O)N1CCc3ccc(cc3C1)C(CC(=O)O)c1ccc(nc1)OCCCCC2 (stereo not drawn) [Compound 154] | 16.6 | 13.6 | 35.8 | 37.8 | 3.3 nM and 3.5 nM | – | – | – | –
C[C@H](C(=O)O)[C@@H]1c2ccc(nc2)OCCCCCc2ccc(cc2)C(=O)N2CCc3ccc1cc3C2 [Compound 55] | – | – | – | – | 215 nM and 226 nM and 220 nM and 201 nM | 125 | 147 | 354 | 482
Cc1cc2ccc1C(=O)N1CCc3ccc(cc3C1)C(CC(=O)O)c1ccc3c(nnn3CCCCCC2)c1Cl (stereo not drawn) [Compound 171] | 1 | 1.6 | 5.4 | 8.3 | 2.5 nM | – | – | – | –
Cc1c2ccc3c1nnn3CCCCCCOc1cnc(c(F)c1)C(=O)N1CCc3ccc(cc3C1)C2CC(=O)O (stereo not drawn) [Compound 217] | 371 | 360 | 301 | 429 | 1.9 nM and 2.1 nM | – | – | – | –
O=C(O)CC1c2ccc3c(c2)CN(CC3)C(=O)c2ccc(cc2F)CCCCCn2nnc3cc1ccc32 (stereo not drawn) [Compound 252] | 15.5 | – | – | 21.2 | 1.2 nM and 1.3 nM (2×) and 1.4 nM | – | – | – | –
COc1cc2ccc1C(=O)N1CCc3ccc(cc3C1)[C@@H](CC(=O)O)c1cnc3c(nnn3CCCCC2)c1C [Compound 88] | – | – | – | – | 1 nM and 1.1 nM | 35.3 | 40.4 | 101 | 88.5
O=C(O)CC1c2ccc(nc2)OCCCCCOc2ccc(c(F)c2)C(=O)N2CCc3ccc1cc3C2 (stereo not drawn) [Compound 268] | 505 | – | – | 561 | 68.1 nM and 70.7 nM | – | – | – | –
Cc1c2ccc3c1nnn3CCCCCCc1ccc(cc1)C(=O)N1CCc3ccc(cc3C1)[C@@H]2[C@H](C)C(=O)O [Compound 175] | 53.3 | 53.7 | 125 | 104 | 10.4 nM and 10.3 nM | – | – | – | –
O=C(O)CC1c2ccc3c(c2)CN(CC3)C(=O)c2ncc(cc2F)OCCCCCCn2nnc3c(Cl)c1ccc32 (stereo not drawn) [Compound 213] | 118 | 98.4 | 126 | 147 | 1.5 nM and 1.6 nM | – | – | – | –
Cc1cc2ccc1C(=O)N1CCc3ccc(cc3C1)[C@H]([C@@H](C)C(=O)O)c1ccc3c(nnn3CCCOCCO2)c1C [Compound 371] | 21.3 | 22.1 | 28.8 | 23.6 | 1.6 nM and 1.7 nM | – | – | – | –
C[C@@H](C(=O)O)[C@@H]1c2ccc3c(c2)CN(CC3)C(=O)c2c(F)cc(cc2F)OCCCCCCn2nnc3cc1ccc32 [Compound 256] | > 10000 | – | – | > 10000 | 86.9 nM | – | – | – | –
O=C(O)CC1c2ccc(nc2)OCCCCOc2cnc(cn2)C(=O)N2CCc3ccc1cc3C2 (stereo not drawn) [Compound 185] | > 10000 | – | – | > 10000 | > 1000 nM | – | – | – | –
COc1cc2ccc1CCCCCCn1nnc3c(C)c(cnc31)[C@@H](CC(=O)O)c1ccc3c(c1)CN(CC3)C2=O [Compound 96] | – | – | – | – | 0.8 nM | 25.5 | 29.4 | 49.6 | 42.8
